Columns and labels:
recombinant XL35 [1] = assay: Inhibition of XL35 erythrocyte agglutination activity; type: cell-based, Xenopus laevis; conditions: 2 M urea
Procedure: The assay was performed essentially as described using trypsinized, glutaraldehyde-fixed rabbit erythrocytes [Barondes and Roberson (1987) Methods Enzymol. 138, 516-20] in TCS buffer (10 mM Tris, pH 7.6, 10 mM CaCl2, 150 mM NaCl). To compare the agglutination properties of both the purified and recombinant lectins, the two lectins were assayed under similar conditions. Because the eluted recombinant lectin was in 8 M urea, a solution of purified non-recombinant lectin was also brought to 8 M with a concentrated urea solution. The agglutination assay was performed using […] of either recombinant or native XL35 lectin in […] TCS and 8 M urea was added to wells of a 96-well microtiter plate. Next, […] of TCS alone or TCS containing 0.4 M EDTA or 1.0 M melibiose or 1.0 M sucrose was added to the wells and mixed with the lectin solution. To this solution, 50 ml of a 1:1 suspension of trypsinized, glutaraldehyde-fixed rabbit erythrocytes in TCS was added and the contents of the wells were mixed by trituration. The final concentration of urea in the wells was 2 M, while that of EDTA was 0.10 M and that of melibiose and sucrose were 0.25 M. Agglutination activity was scored after 1.5 hr. at room temperature using an inverted microscope on low power. After 1.5 hr in TCS plus 2 M urea, the purified oocyte lectin retained about 25-50% of the agglutination activity observed when it was assayed in TCS alone, but the relative abilities of various sugars to inhibit the agglutination reaction were similar in the presence or absence of urea. The recombinant lectin precipitated in the absence of urea; therefore, at least 2 M urea was used in the agglutination assay.

recombinant XL35 [2] = conditions: in the presence of Ca++; literature (Clark 1987); cited from earlier work

Row | SMILES | inhibition of recombinant XL35 agglutination activity (recombinant XL35 [1]; inhibitor at 0.25 M) | inhibition of agglutination of trypsinized rabbit erythrocytes by frog oocyte lectins (recombinant XL35 [2]) | inhibition of recombinant XL35 agglutination activity (recombinant XL35 [1]; inhibitor at 0.1 M)
1 | OC[C@H]1O[C@H](OCC2O[C@@H](O)[C@H](O)[C@@H](O)[C@@H]2O)[C@H](O)[C@@H](O)[C@H]1O (stereo partly shown) [melibiose] | completely inhibited | strongly inhibited | –
2 | OC[C@H]1O[C@@](CO)(O[C@H]2O[C@H](CO)[C@@H](O)[C@H](O)[C@H]2O)[C@@H](O)[C@@H]1O [sucrose] | not | – | –
3 | O=C(O)CN(CCN(CC(=O)O)CC(=O)O)CC(=O)O [EDTA] | – | – | completely inhibited

From US6524820B1, “Lectins and coding sequences” (University of Georgia Research Foundation, Inc., priority 1997, dated 2003)
